Our source for the IC50 values is US9695195B2, “5-HT3 receptor antagonists” (Takeda Pharmaceutical Company Limited, priority 2012, dated 2017).

Structures can show the parent of a compound that is named as a salt.

Usually IC50 stands for the concentration needed to halve the response being measured. Higher therefore signals weaker potency.

For this assay, the target named is 5HT3a receptor (Homo sapiens (Human), UniProt P46098). Description: Inhibition of Ca flux activity of 5HT3 in vitro assay. The settings on record: 5HT3a expressed in HEK-293T cells; 5HT 216 nM; approximate values. It is filed as cell-based. The method, then: The 5HT3 antagonist activity of the compounds of the invention was determined by measuring the ability of the compounds to inhibit the calcium flux activity of […] receptor expressed in HEK-293T cells. HEK-293T cells were transfected with the 5HT3a expression construct using Xtreme Gene 9 (Roche) in 150 mm tissue culture treated plates and incubated for 24 hours at 37° C. Cells were then split and plated at a density of 60K cells/well in poly-lysine coated, black 96-well plates with clear bottoms (BD BioSciences) and incubated overnight at 37° C. Growth media was removed and cells loaded with 200 uL calcium indicator dye in HBSS containing 20 mM HEPES (Calcium 5 Assay kit, Molecular Devices) and incubated at 37° C. for 1 hour. While cells were incubating, the 10× antagonist and agonist/antagonist addition plates were made. For 10× antagonist plate: half log serial dilutions (final concentrations range from 10^−7 through 10^−10 with the bottom well a negative, no ligand control) were made from test compounds in DMSO at a 1000× concentration and then diluted to 10× in HBSS/20 mM HEPES. For addition plate: 5HT was diluted to 100× in HBSS/20 mM HEPES (final concentration in the assay-216 nM) and 15 uL was added to each well of the addition plate, 15 uL of 10× compound was also added to the addition plate, and finally 120 uL of HBSS/20 mM HEPES (for a total of 150 uL). Cells were then removed from the incubator and equilibrated to room temperature for 10 minutes, then 22.5 uL of 10× test compounds were added in triplicate to the plates and incubated at room temperature for 10 minutes (Tropisetron was used as a positive control in every assay). Test plate and addition plate were loaded into the FlexStation III (Molecular Devices), and using the fluidics, 22.5 uL compound additions were made (at t=˜17 seconds), and fluorescence was measured for 90 seconds, reading every 2.2 seconds. Data sets were analyzed as max minus min using Software Max Pro (Molecular Devices). IC50 curves were generated using non-linear regression in GraphPad Prism.
5HT3a receptor, sequence (P46098 24-478): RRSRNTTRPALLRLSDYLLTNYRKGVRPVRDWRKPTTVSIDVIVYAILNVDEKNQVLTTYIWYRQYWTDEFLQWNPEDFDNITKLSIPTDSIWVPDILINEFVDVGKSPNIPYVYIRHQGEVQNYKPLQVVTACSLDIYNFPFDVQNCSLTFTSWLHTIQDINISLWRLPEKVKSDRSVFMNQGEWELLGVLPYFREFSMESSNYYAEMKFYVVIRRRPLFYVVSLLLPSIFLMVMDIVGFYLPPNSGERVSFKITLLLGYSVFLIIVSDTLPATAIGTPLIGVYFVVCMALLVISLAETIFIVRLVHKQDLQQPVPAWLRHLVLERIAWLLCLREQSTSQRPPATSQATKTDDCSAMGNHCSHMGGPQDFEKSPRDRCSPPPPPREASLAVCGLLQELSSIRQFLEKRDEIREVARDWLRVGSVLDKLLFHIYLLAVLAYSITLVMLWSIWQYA
In the case of `CN1[C@@H]2CCC[C@H]1CC(OC(=O)c1nn(S(C)(=O)=O)c3ccccc13)C2` (stereo partly drawn) [Compound 4, (1R,3R,5S)-9-methyl-9-aza-bicyclo[3.3.1]nonan-3-yl 1-(methylsulfonyl)-1H-indazole-3-carboxylate, 2,2,2-trifluoroacetate], the IC50 turned out to be 1.4 nM.

On to `O=C(OC1CC2COCC(C1)N2)c1cn(-c2ccns2)c2ccccc12` [Compound 155, (1R,5S,7s)-3-oxa-9-aza-bicyclo[3.3.1]nonan-7-yl 1-(iso-thiazol-5-yl)-1H-indole-3-carboxylate, 2,2,2-trifluoroacetic acid salt], for which the IC50 was found to be 1.26 nM.

`CN1[C@@H]2CC[C@H]1CC(OC(=O)c1cn(S(C)(=O)=O)c3ccccc13)C2` (stereo partly drawn) [Compound 26, (1R,3R,5S)-8-methyl-8-aza-bicyclo[3.2.1]octan-3-yl 1-(methylsulfonyl)-1H-indole-3-carboxylate, 2,2,2-trifluoro-acetate] showed a half-maximal inhibitory concentration (IC50) of 0.54 nM.

In turn, `CN1[C@@H]2CCC[C@H]1CC(OC(=O)c1cn(S(C)(=O)=O)c3ccc(F)cc13)C2` (stereo partly drawn) [Compound 34, (1R,3R,5S)-9-methyl-9-aza-bicyclo[3.3.1]nonan-3-yl 5-fluoro-1-(methylsulfonyl)-1H-indole-3-carboxylate, 2,2,2-trifluoroacetate] gave an IC50 of 0.74 nM.

`N#CCn1cc(C(=O)OC2C[C@H]3COC[C@@H](C2)N3)c2ccccc21` (stereo partly drawn) [Compound 187, (1R,5S,7S)-3-oxa-9-aza-bicyclo[3.3.1]nonan-7-yl 1-(cyanomethyl)-1H-indole-3-carboxylate] gave an IC50 of 1.18 nM. This IC50 lies about 1.6-fold higher than the previous one.

In turn, `CN1[C@@H]2COC[C@H]1CC(OC(=O)c1cn(-c3ncccn3)c3ccccc13)C2` (stereo partly drawn) [Compound 188, (1R,5S,7S)-9-methyl-3-oxa-9-azabicyclo[3.3.1]nonan-7-yl 1-(pyrimidin-2-yl)-1H-indole-3-carboxylate] registered a 50% inhibitory concentration (IC50) of 1.75 nM.

For `CN1[C@@H]2COC[C@H]1C[C@@H](OC(=O)c1cn(-c3ccc(F)nn3)c3ccccc13)C2` [Compound 137, (1R,5S,7s)-9-methyl-3-oxa-9-azabicyclo[3.3.1]nonan-7-yl 1-(6-fluoropyridazin-3-yl)-1H-indole-3-carboxylate], the half-inhibitory concentration (IC50) was 0.681 nM.

Take `CN1[C@@H]2CC[C@H]1C[C@H](OC(=O)c1c3n(c4ccccc14)CCO3)C2` [Compound 28, (1R,3R,5S)-8-methyl-8-aza-bicyclo[3.2.1]octan-3-yl 2,3-dihydrooxazolo[3.2-a] indole-9-carboxylate, 2,2,2-trifluoroacetate]: half-maximal inhibition (IC50) was put at 1.08 nM. This IC50 lies about 1.6-fold higher than the previous one.

Consider `CN1[C@@H]2COC[C@H]1CC(OC(=O)c1cn(-c3cncnc3)c3ccccc13)C2` (stereo partly drawn) [Compound 189, (1R,5S,7S)-9-methyl-3-oxa-9-azabicyclo[3.3.1]nonan-7-yl 1-(pyrimidin-5-yl)-1H-indole-3-carboxylate], for which the IC50 was 0.46 nM.

Compound `CN1[C@@H]2CC[C@H]1CC(NC(=O)c1cn(S(C)(=O)=O)c3ccc(F)cc13)C2` (stereo partly drawn) [Compound 18, 5-fluoro-N-((1R,3R,5S)-8-methyl-8-azabicyclo[3.2.1]octan-3-yl)-1-(methylsulfonyl)-1H-indole-3-carboxamide, 2,2,2-trifluoroacetate] came in with a half-inhibitory concentration (IC50) of 4.06 nM. This IC50 is about 8.8-fold higher than that of the compound before.

In turn, `CN1[C@@H]2COC[C@H]1C[C@@H](OC(=O)c1cn(-c3cncs3)c3ccccc13)C2` [Compound 183, (1R,5S,7S)-9-methyl-3-oxa-9-azabicyclo[3.3.1]nonan-7-yl 1-(thiazol-5-yl)-1H-indole-3-carboxylate] returned an IC50 of 1.27 nM.

`CN1[C@@H]2CCC[C@H]1CC(OC(=O)c1c(Cl)n(CCF)c3ccccc13)C2` (stereo partly drawn) [Compound 30, (1R,3R,5S)-9-methyl-9-aza-bicyclo[3.3.1]nonan-3-yl 2-chloro-1-(2-fluoroethyl)-1H-indole-3-carboxylate, 2,2,2-trifluoroacetate] displayed an IC50 of 0.2 nM. Against the preceding compound, the IC50 is about 6.3-fold lower.

`CN1[C@@H]2COC[C@H]1C[C@@H](OC(=O)c1cn(CC(F)(F)F)c3ccc(F)cc13)C2` [Compound 32, (1R,5S,7S)-9-methyl-3-oxa-9-azabicyclo[3.3.1]nonan-7-yl 5-fluoro-1-(2,2,2-trifluoroethyl)-1H-indole-3-carboxylate, 2,2,2-trifluoroacetate] registered an IC50 of 1.38 nM.

Consider `CN1[C@@H]2CC[C@H]1C[C@@H](OC(=O)c1c(Cl)n(S(C)(=O)=O)c3ccccc13)C2` [Compound 13, (1R,3R,5S)-8-methyl-8-aza-bicyclo[3.2.1]octan-3-yl 2-chloro-1-(methylsulfonyl)-1H-indole-3-carboxylate, 2,2,2-trifluoroacetate], for which inhibition was half-maximal at 0.93 nM (IC50). This IC50 and that of the compound before are within 1.5-fold of each other.

Compound `CN1[C@@H]2COC[C@H]1CC(OC(=O)c1cn(-c3cnccn3)c3ccccc13)C2` (stereo partly drawn) [Compound 181, (1R,5S,7S)-9-methyl-3-oxa-9-azabicyclo[3.3.1]nonan-7-yl 1-(pyrazin-2-yl)-1H-indole-3-carboxylate] returned a concentration for half-maximal inhibition (IC50) of 1.1 nM.

As for `O=C(OC1CC2COCC(C1)N2)c1cn(-c2ccsn2)c2ccccc12` [Compound 145, (1R,5S,7s)-3-oxa-9-aza-bicyclo[3.3.1]nonan-7-yl 1-(iso-thiazol-3-yl)-1H-indole-3-carboxylate, 2,2,2-trifluoroacetic acid salt], the half-inhibitory concentration (IC50) stood at 2.71 nM. This IC50 lies about 2.5-fold higher than the previous one.

The compound `CN1[C@@H]2COC[C@H]1CC(OC(=O)c1cn(-c3cnc(F)cn3)c3ccccc13)C2` (stereo partly drawn) [Compound 184, (1R,5S,7S)-9-methyl-3-oxa-9-aza-bicyclo[3.3.1]nonan-7-yl 1-(5-fluoropyrazin-2-yl)-1H-indole-3-carboxylate] had a 50% inhibitory concentration (IC50) of 1.25 nM.

The compound `O=C(OC1CC2CCC(C1)N2)c1cn(CC(F)(F)F)c2ccccc12` [Compound 14, (1R,3R,5S)-8-azabicyclo[3.2.1] octan-3-yl 1-(2,2,2-trifluoroethyl)-1H-indole-3-carboxylate, 2,2,2-trifluoroacetate] registered an IC50 of 3.71 nM.

Compound `CN1[C@@H]2CC[C@H]1CC(OC(=O)c1cn(CC(F)(F)F)c3ccc(F)cc13)C2` (stereo partly drawn) [Compound 1, (1R,3R,5S)-8-methyl-8-aza-bicyclo[3.2.1]octan-3-yl 5-fluoro-1-(2,2,2-trifluoro-ethyl)-1H-indole-3-carboxylate; 2,2,2-trifluoroacetate] registered a 50% inhibitory concentration (IC50) of 2.13 nM. This IC50 is about 1.7-fold lower than that of the compound before.

The compound `Cc1c(C(=O)OC2C[C@H]3CC[C@@H](C2)N3C)c2ccccc2n1CCF` (stereo partly drawn) [Compound 15, (1R,3R,5S)-8-methyl-8-aza-bicyclo[3.2.1]octan-3-yl 1-(2-fluoroethyl)-2-methyl-1H-indole-3-carboxylate, 2,2,2-trifluoroacetate] showed an IC50 of 0.53 nM.

With `O=C(OC1C[C@H]2COC[C@@H](C1)N2CCF)c1cn(CC(F)F)c2ccc(F)cc12` (stereo partly drawn) [Compound 33, (1R,5S,7S)-9-(2-fluoroethyl)-3-oxa-9-azabicyclo[3.3.1] nonan-7-yl 1-(2,2-difluoroethyl)-5-fluoro-1H-indole-3-carboxylate, 2,2,2-trifluoroacetate], the 50% inhibitory concentration (IC50) came to 14.4 nM.

`CS(=O)(=O)n1cc(C(=O)O[C@H]2C[C@H]3COC[C@@H](C2)N3)c2cc(F)ccc21` [Compound 19, (1R,5S,7S)-3-oxa-9-aza-bicyclo[3.3.1]nonan-7-yl 5-fluoro-1-(methylsulfonyl)-1H-indole-3-carboxylate, 2,2,2-trifluoroacetate] gave an IC50 of 7.72 nM.

The compound `CN1[C@@H]2CC[C@H]1C[C@H](OC(=O)c1cn(CC(F)F)c3ccc(F)cc13)C2` [Compound 27, (1R,3R,5S)-8-methyl-8-aza-bicyclo[3.2.1]octan-3-yl 1-(2,2-difluoroethyl)-5-fluoro-1H-indole-3-carboxylate, 2,2,2-trifluoroacetate] gave an IC50 of 0.89 nM.

Turning to `CN1[C@@H]2CC[C@H]1CC(OC(=O)c1nn(CC(F)(F)F)c3ccccc13)C2` (stereo partly drawn) [Compound 17, (1R,3R,5S)-8-methyl-8-aza-bicyclo[3.2.1]octan-3-yl 1-(2,2,2-trifluoroethyl)-1H-indazole-3-carboxylate, 2,2,2-trifluoroacetate], the half-inhibitory concentration (IC50) stood at 4.39 nM.

Take `CN1[C@@H]2CCC[C@H]1CC(OC(=O)c1nn(CCF)c3ccccc13)C2` (stereo partly drawn) [Compound 16, (1R,3R,5S)-9-methyl-9-aza-bicyclo[3.3.1]nonan-3-yl 1-(2-fluoroethyl)-1H-indazole-3-carboxylate, 2,2,2-trifluoro-acetate; 2,2,2-trifluoroacetate]: the half-maximal inhibitory concentration (IC50) is 3.25 nM. This IC50 and that of the compound before are within 1.5-fold of each other.

As for `O=C(NC1CC2COCC(C1)N2)c1cn(CC(F)(F)F)c2ccc(F)cc12` [Compound 6, N-((1R,5S,7S)-3-oxa-9-aza-bicyclo[3.3.1]nonan-7-yl)-5-fluoro-1-(2,2,2-trifluoro-ethyl)-1H-indole-3-carboxamide, 2,2,2-trifluoroacetate], the IC50 came to 2.33 nM.

Turning to `CN1[C@@H]2COC[C@H]1CC(OC(=O)c1cn(-c3ccsn3)c3ccccc13)C2` (stereo partly drawn) [Compound 182, (1R,5S,7S)-9-methyl-3-oxa-9-azabicyclo[3.3.1]nonan-7-yl 1-(isothiazol-3-yl)-1H-indole-3-carboxylate], the concentration for half-maximal inhibition (IC50) was determined as 1.62 nM.
